This data set is described as follows: Solubility of fluvastatin sodium in solvents. Type of data set: physicochemical. As to conditions: in water, alcohols and acetone. The text has this: In one aspect, the solvent-based process uses a solvent, such as water, non-organic solvents, and organic solvents, to dissolve and intimately disperse or dissolve the drug and the one or more pharmaceutical acceptable polymers. The solvent is later removed by evaporation or other ways while the drug/polymer solid dispersion is collected into a solid dosage form. The use of organic solvents may generate hazardous and toxic wastes to the environment. If possible, water is used for water soluble drugs to prepare a dispersion. Other suitable solvents may be, for example, alcohols and acetone for the use of water-insoluble polymers.

Consider `CC(C)n1c(/C=C/C(O)CC(O)CC(=O)O)c(-c2ccc(F)cc2)c2ccccc21` (stereo not drawn) [fluvastatin sodium, [R*,S*-(E)]=(±)-7-[3-(4-fluorophenyl)-1-(1-methylethyl)-1Hindol-2-yl]-3,5-dihydroxy-6-heptenoic acid], for which the Solubility result is on record as “soluble”.

The record behind these values is patent publication US20110052688A1, “SOLID DISPERSION COMPOSITION” (priority 2006, published 2011).
